Test results as given in patent US8685974B2 (Bayer CropScience AG, priority 2009, dated 2014).
“And” between values parts separate entries of the source, which are not always exact repeats. Identical values can stand only once. Like-named read-outs stand apart in the source and are kept apart here. Marks after values point to notes of the source that are not given here.

Tests used:
Rhizoctonia solani = experiment: Rhizoctonia test (rice) / protective; assay type: in vivo; conditions: 500 ppm active compound, protective spray, evaluated 4 days after inoculation
Method: Rhizoctonia Test (Rice)/Protective
Solvent: 28.5 parts by weight of acetone
Emulsifier: 1.5 parts by weight of polyoxyethylene alkyl phenyl ether
To produce a suitable preparation of active compound, 1 part by weight of active compound is mixed with the stated amounts of solvent and emulsifier, and the concentrate is diluted with water to the desired concentration.
To test for protective activity, young plants are sprayed with the preparation of active compound at the stated rate of application. One day after spraying, the plants are inoculated with a hypha of the causal agent of rice sheath blight (Rhizoctonia solani). The plants are then placed in an incubator at approximately 25° C. and a relative atmospheric humidity of approximately 100%.
The test is evaluated 4 days after the inoculation. 0% means an efficacy which corresponds to that of the control, while an efficacy of 100% means that no disease is observed.

Cochliobolus miyabeanus = experiment: Cochliobolus test (rice) / protective; assay type: in vivo; conditions: 500 ppm active compound, protective spray, evaluated 4 days after inoculation
[1] = for logP value of the minor isomer (in parenthesis in column Isomer ratio [d]): main value of the example measured by method [b]
Pyricularia grisea = conditions: in vivo
Alternaria solani = experiment: Alternaria test (tomato) / protective; assay type: in vivo; conditions: 500 ppm active compound, protective spray, evaluated 7 days after inoculation
Outline: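 Efficacy scored 7 days after inoculation, where 100% means no infection and 0% matches the untreated control. Test plants were young tomatoes given a protective spray at the stated rate, compound dissolved in DMF plus emulsifier and diluted with water. Incubation at 20° C, 96% relative humidity.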

Peronospora parasitica = experiment: In vivo test on Peronospora parasitica (crucifer downy mildew); conditions: dose of 500 ppm; cabbage plants; grading 5 days after contamination
Method: In Vivo Test on Peronospora parasitica (Crucifer Downy Mildew)
The active ingredients tested are prepared by homogenization in a mixture of acetone/Tween/DMSO, then diluted with water to obtain the desired active material concentration.
Cabbage plants (Eminence variety) in starter cups, sown on a 50/50 peat soil-pozzolana substrate and grown at 18-20° C., are treated at the cotyledon stage by spraying with the aqueous suspension described above.
(§1) Plants, used as controls, are treated with an aqueous solution not containing the active material.
After 24 hours, the plants are contaminated by spraying them with an aqueous suspension of Peronospora parasitica spores (50 000 spores per ml). The spores are collected from infected plant.
The contaminated cabbage plants are incubated for 5 days at 20° C., under a humid atmosphere.
Grading is carried out 5 days after the contamination, in comparison with the control plants.

Pyricularia oryzae = conditions: in vivo
Pyrenophora teres = experiment: In vivo test on Pyrenophora teres (barley net blotch); conditions: dose of 500 ppm; barley plants; grading 12 days after contamination
Outline: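 Scoring is done 12 days after spore spraying (12,000 spores/ml, from 12-day-old culture), relative to water-treated controls. Inoculation follows by 24 h a preventive spray of the aqueous-diluted formulation onto 1-leaf Plaisant barley raised at 12° C.; infection holds 24 h at about 20° C./100% RH, then 12 days at 80% RH.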

Puccinia recondita = experiment: In vivo test on Puccinia recondita (brown rust); conditions: dose of 500 ppm; wheat plants; grading 10 days after contamination
Method: In Vivo Test on Puccinia recondita (Brown Rust)
(§2) The active ingredients tested are prepared by homogenization in a mixture of acetone/tween/DMSO, then diluted with water to obtain the desired active material.
Wheat plants (Scipion variety) sown on 50/50 peat soil-pozzolana substrate in starter cups and grown at 12° C., are treated at the 1-leaf stage (10 cm tall) by spraying with the aqueous suspension described above.
as §1
After 24 hours, the plants are contaminated by spraying the leaves with an aqueous suspension of Puccinia recondita spores (100,000 spores per ml). The spores are collected from a 10-day-old contaminated wheat and are suspended in water containing 2.5 ml/l of tween 80 10%. The contaminated wheat plants are incubated for 24 hours at 20° C. and at 100% relative humidity, and then for 10 days at 20° C. and at 70% relative humidity.
Grading is carried out 10 days after the contamination, in comparison with the control plants.

Sphaerotheca fuliginea = experiment: In vivo test on Sphaerotheca fuliginea (cucurbits powdery mildew); conditions: dose of 500 ppm; gherkin plants; grading 12 days after contamination
Method: In Vivo Test on Sphaerotheca fuliginea (Cucurbits Powdery Mildew)
as §2
Gherkin plants (Vert petit de Paris variety) in starter cups, sown on a 50/50 peat soil-pozzolana substrate and grown at 20° C./23° C., are treated at the cotyledon Z10 stage by spraying with the aqueous suspension described above. Plants, used as controls, are treated with an aqueous solution not containing the active material.
After 24 hours, the plants are contaminated by spraying them with an aqueous suspension of Sphaerotheca fuliginea spores (100 000 spores per ml). The spores are collected from a contaminated plants. The contaminated gherkin plants are incubated at about 20° C./25° C. and at 60/70% relative humidity.
Grading (% of efficacy) is carried out 12 days after the contamination, in comparison with the control plants.

Leptosphaeria nodorum = Leptosphaeria nodorum test (wheat) / protective; assay type: in vivo; conditions: 500 ppm active compound, protective spray, evaluated 7-9 days after inoculation
Outline: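 Young wheat plants sprayed protectively with compound in DMF/alkylaryl polyglycol ether emulsion diluted in water, then kept in greenhouse at 90% rel. humidity, 22° C. Scored 7-9 days after inoculation as % efficacy, 0% equal to untreated control and 100% no infection.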

Botrytis cinerea = experiment: In vivo test on Botrytis cinerea (grey mould); conditions: dose of 500 ppm; gherkin plants; grading 5/7 days after contamination
Method: In Vivo Test on Botrytis cinerea (Grey Mould)
The active ingredients tested are prepared by homogenization in a mixture of acetone/Tween/DMSO, then diluted with water to obtain the desired active material
Gherkin plants (Vert petit de Paris variety), sown on a 50/50 peat soil-pozzolana substrate in starter cups and grown at 18-20° C., are treated at the cotyledon Z11 stage by spraying with the active ingredient prepared as described above.
as §1
After 24 hours, the plants are contaminated by depositing drops of an aqueous suspension of Botrytis cinerea spores (150,000 spores per ml) on upper surface of the leaves. The spores are collected from a 15-day-old culture and are suspended in a nutrient solution composed of: • 20 g/L of gelatine; • 50 g/L of D-fructose; • 2 g/L of NH4NO3; • 1 g/L of KH2PO4.
The contaminated cucumber plants are settled for 5/7 days in a climatic room at 15-11° C. (day/night) and at 80% relative humidity.
Grading is carried out 5/7 days after the contamination, in comparison with the control plants.

[2] = system: Mycosphaerella graminicola; experiment: In vivo test on Mycosphaerella graminicola (wheat leaf spot); conditions: dose of 500 ppm; wheat plants; grading 21 to 28 days after contamination
Method: In Vivo Test on Mycosphaerella graminicola (Wheat Leaf Spot)
The active ingredients tested are prepared by homogenization in a mixture of acetone/tween/DMSO, then diluted with water to obtain the desired active material concentration.
Wheat plants (Scipion variety), sown on a 50/50 peat soil-pozzolana substrate in starter cups and grown at 12° C., are treated at the 1-leaf stage (10 cm tall) by spraying with the aqueous suspension described above. Plants, used as controls, are treated with an aqueous solution not containing the active material.
After 24 hours, the plants are contaminated by spraying them with an aqueous suspension of Mycosphaerella graminicola spores (500 000 spores per ml). The spores are collected from a 7-day-old culture. The contaminated wheat plants are incubated for 72 hours at 18° C. and at 100% relative humidity, and then for 21 to 28 days at 90% relative humidity.
Grading (% of efficacy) is carried out 21 to 28 days after the contamination, in comparison with the control plants.

Fusarium proliferatum = experiment: Production of fumonisin FB1 by Fusarium proliferatum (microtiter plate, HPLC-MS/MS and OD620); assay type: cell-based; conditions: for % inhibition FB1 production at 50 μM: 5 days at 20° C., HPLC-MS/MS; for % inhibition fungal growth at 50 μM: Fusarium proliferatum, OD620 at start and after 5 days
Fusarium graminearum = assay type: cell-based; conditions: 50 μM; for % Inhibition of DON/AcDON at 50 μM: 7 days at 28° C.
[3] = method [c]: LC-MS at pH 7.8, 0.001 molar ammonium hydrogen carbonate, gradient 10% to 95% acetonitrile
Phakopsora pachyrhizi = conditions: 250 ppm active substance; protective; assessment 11 days after inoculation
Aspergillus parasiticus = assay type: cell-based; conditions: for % Inhibition of Aflatoxin at 50 μM: 7 days at 20° C.

| SMILES | efficacy (Rhizoctonia solani) | log p ([1]; pH 2.7) | protection (Peronospora parasitica) | protection (Pyrenophora teres) | protection (Puccinia recondita) | protection (% of efficacy) (Sphaerotheca fuliginea) | protection (Botrytis cinerea) | protection (% of efficacy) [2] | also measured |
| --- | --- | --- | --- | --- | --- | --- | --- | --- | --- |
| FC(F)(F)Cn1cc(-c2ccncc2)c(-c2ccc(Cl)s2)n1 [Example 54] | 100% | 1.88^[b] |  |  |  |  |  |  | efficacy (Cochliobolus miyabeanus): 90% |
| Cn1cc(-c2ccncc2)c(-c2ccc(Cl)s2)n1 [Example 46] |  | 1.26^[b] | 92% | 70% |  |  |  |  | protection (% of efficacy) (Pyricularia grisea): 93%; logP value of the minor isomer (in parenthesis in column Isomer ratio [d]) ([1]; pH 2.7): (1.17); efficacy (Alternaria solani): 95%; efficacy (Pyricularia oryzae): 93% |
| CCC(CC)n1cc(-c2ccncc2)c(-c2ccc(Cl)s2)n1 [Example 64] | 100% | 2.18^[b] |  | 95% | 88% | 98% | 98% | 88% | efficacy (Cochliobolus miyabeanus): 97%; efficacy (Alternaria solani): 80%; efficacy (Leptosphaeria nodorum): 78% |
| CC(C)n1cc(-c2ccncc2)c(-c2ccc(Cl)s2)n1 [Example 38] | 97% | 1.88^[b] | 97% |  | 72% | 83% | 100% |  | protection (% of efficacy) (Pyricularia grisea): 98%; efficacy (Cochliobolus miyabeanus): 93%; log p ([1]; pH 2.3): 1.63^[a];; % inhibition FB1 production at 50 μM (Fusarium proliferatum): 100%; % inhibition fungal growth at 50 μM (Fusarium proliferatum): 88%; efficacy (Pyricularia oryzae): 98% |
| CCC(C)n1cc(-c2ccnc(N)c2)c(-c2ccc(Cl)s2)n1 (centres unmarked) [Example 317] |  |  |  |  |  |  |  |  | % Inhibition of fungal growth at 50 μM (Fusarium graminearum): 78%; % Inhibition of DON/AcDON at 50 μM (Fusarium graminearum): 100%; log p [3]: 3.31^[c] |
| CCC(C)n1cc(-c2ccnc(N=C(c3ccccc3)c3ccccc3)c2)c(-c2ccc(Cl)s2)n1 (centres unmarked) [Example 308] |  |  |  |  |  |  |  |  | log p [3]: 6.5^[c] |
| C#CCn1cc(-c2ccncc2)c(-c2ccc(Cl)s2)n1 [Example 47] |  | 1.54^[b] | 100% | 70% | 71% |  |  |  | protection (% of efficacy) (Pyricularia grisea): 86%; logP value of the minor isomer (in parenthesis in column Isomer ratio [d]) ([1]; pH 2.7): (1.36); efficacy (Alternaria solani): 95%; efficacy (Pyricularia oryzae): 86% |
| C=CC(C)n1cc(-c2ccncc2)c(-c2ccc(Cl)s2)n1 (racemic) [Example 61] | 98% | 1.91^[b] | 100% |  | 77% | 94% |  | 77% | efficacy (Cochliobolus miyabeanus): 92%; logP value of the minor isomer (in parenthesis in column Isomer ratio [d]) ([1]; pH 2.7): (1.76) |
| CCC(C)n1cc(-c2ccncc2)c(-c2ccc(Cl)s2)n1 (centres unmarked) [Example 8] |  | 2.1^[b] | 92% | 100% | 86% |  | 100% |  | activity level (Phakopsora pachyrhizi): 98% |
| CCC(C)n1nc(-c2ccc(Cl)s2)c(-c2ccncc2)c1SC (centres unmarked) [Example 298] |  | 3.35^[b] |  |  |  |  |  |  | % Inhibition of fungal growth at 50 μM (Fusarium graminearum): 38%; % Inhibition of DON/AcDON at 50 μM (Fusarium graminearum): 100%; % Inhibition of fungal growth at 50 μM (Aspergillus parasiticus): 64%; % Inhibition of Aflatoxin at 50 μM (Aspergillus parasiticus): 99%; efficacy (Alternaria solani): 95% |
| CC(C)Cn1ncc(-c2ccncc2)c1-c1ccc(Cl)s1 [Example 6] |  |  |  |  | 70% | 75% |  | 70% | log p ([1]; pH 2.3): 2.2^[a] |
| CC(C)Cn1cc(-c2ccncc2)c(-c2ccc(Cl)s2)n1 [Example 21] |  | 2.08^[b] |  | 100% | 75% and 85% | 89% | 100% | 85% | % Inhibition of fungal growth at 50 μM (Fusarium graminearum): 96%; % Inhibition of DON/AcDON at 50 μM (Fusarium graminearum): 100%; % inhibition FB1 production at 50 μM (Fusarium proliferatum): 100%; % inhibition fungal growth at 50 μM (Fusarium proliferatum): 91% |
| COCn1cc(-c2ccncc2)c(-c2ccc(Cl)s2)n1 [Example 52] |  | 1.38^[b] |  | 86% | 97% | 90% | at least 70% | 97% |  |
| ClC(Cl)=CCn1cc(-c2ccncc2)c(-c2ccc(Cl)s2)n1 [Example 50] | 93% | 2.3^[b] |  | 70% |  |  |  |  | logP value of the minor isomer (in parenthesis in column Isomer ratio [d]) ([1]; pH 2.7): (2.07) |
| Nc1cc(-c2cn(CCF)nc2-c2ccc(Cl)s2)ccn1 [Example 296] |  | 1.46^[b] |  | 70% |  |  |  |  | % Inhibition of fungal growth at 50 μM (Aspergillus parasiticus): 47%; % Inhibition of Aflatoxin at 50 μM (Aspergillus parasiticus): 74% |
